In the NIST ThermoML archive (doi:10.1016/j.jct.2015.11.020):
“And” between values parts separate entries of the source, which are not always exact repeats. Identical values can stand only once. Numbers after ± are expanded uncertainties.

Test: mn = molality of the nth substance listed, in mol/kg
Conditions: 100 kPa, Liquid; for speed of sound: Frequency=3 MHz, Sing-around technique in a fixed-path interferometer; for mass density: Vibrating tube method

CN(C)C(=N)NC(=N)N.Cl [N,N-dimethylimidodicarbonimidic diamide hydrochloride] + O
Conditions | mass density, m1 = 0.03 [kg/m3] | mass density, m1 = 0.045 [kg/m3] | mass density, m1 = 0.06 [kg/m3] | mass density, m1 = 0.09 [kg/m3] | speed of sound, m1 = 0.03 [m/s] | speed of sound, m1 = 0.045 [m/s] | speed of sound, m1 = 0.06 | speed of sound, m1 = 0.09 [m/s]
305.15 K | 996.159 ± 1 | 996.716 ± 1 | 997.319 ± 1 | 998.393 ± 1 | 1516.5 ± 1.6 | 1518 ± 1.6 | 1519.3 ± 1.5 m/s and 1519.3 ± 1.6 m/s | 1522 ± 1.6
310.15 K | 994.44 ± 1 | 994.953 ± 1 | 995.586 ± 1 | 996.654 ± 1 | 1526.3 ± 1.6 | 1527.7 ± 1.6 | 1529 ± 1.6 m/s | 1531.5 ± 1.6
315.15 K | 992.549 ± 1 | 993.115 ± 1 | 993.681 ± 1 | 994.744 ± 1 | 1534.4 ± 1.6 | 1535.9 ± 1.6 | 1537.2 ± 1.6 m/s | 1539.6 ± 1.6

C[C@@H](O)[C@H](N)C(=O)O [L-threonine] + O
Conditions | mass density, 305.15 K [kg/m3] | mass density, 310.15 K [kg/m3] | mass density, 315.15 K [kg/m3] | speed of sound, 305.15 K [m/s] | speed of sound, 310.15 K [m/s] | speed of sound, 315.15 K [m/s]
m1 = 0.09989 | 999.283 ± 1 | 997.513 ± 1 | 995.687 ± 1 | 1521 ± 1.5 | 1530.7 ± 1.5 | 1538.9 ± 1.5
m1 = 0.1997 | 1003.52 ± 1 | 1001.69 ± 1 | 999.928 ± 1 | 1528 ± 1.5 | 1537.5 ± 1.5 | 1545.4 ± 1.5
m1 = 0.2989 | 1007.74 ± 1 | 1005.85 ± 1 | 1004.15 ± 1 | 1535 ± 1.6 | 1544.6 ± 1.6 | 1552 ± 1.6
m1 = 0.3989 | 1011.99 ± 1.1 | 1010.04 ± 1.1 | 1008.4 ± 1.1 | 1542.2 ± 1.6 | 1551.1 ± 1.6 | 1559 ± 1.6
m1 = 0.5002 | 1016.3 ± 1.1 | 1014.29 ± 1.1 | 1012.7 ± 1.1 | 1549.1 ± 1.7 | 1558.1 ± 1.7 | 1566 ± 1.7
m1 = 0.5982 | 1020.46 ± 1.1 | 1018.39 ± 1.1 | 1016.87 ± 1.1 | 1555.7 ± 1.7 | 1564.8 ± 1.7 | 1573.1 ± 1.7
m1 = 0.6471 | 1022.54 ± 1.2 | 1020.44 ± 1.2 | 1018.94 ± 1.2 | 1559 ± 1.7 | 1567.9 ± 1.8 | 1576.5 ± 1.8
m1 = 0.7007 | 1024.82 ± 1.2 | 1022.69 ± 1.2 | 1021.22 ± 1.2 | 1562.4 ± 1.8 | 1571.7 ± 1.8 | 1580.1 ± 1.8
m1 = 0.7476 | 1026.81 ± 1.2 | 1024.65 ± 1.2 | 1023.22 ± 1.2 | 1565.7 ± 1.9 | 1575.1 ± 1.9 | 1583.3 ± 1.8
m1 = 0.7854 | 1028.42 ± 1.2 | 1026.23 ± 1.3 | 1024.82 ± 1.2 | 1568.4 ± 1.9 | 1577.8 ± 1.8 | 1585.9 ± 1.9

O [water] + C[C@@H](O)[C@H](N)C(=O)O
m2 = 0
Conditions | mass density [kg/m3] | speed of sound [m/s]
305.15 K | 995.038 ± 1 | 1513.7 ± 1.6
310.15 K | 993.328 ± 1 | 1523.6 ± 1.6
315.15 K | 991.439 ± 1 | 1532.1 ± 1.6

O [water] + CN(C)C(=N)NC(=N)N.Cl
m2 = 0
Conditions | mass density [kg/m3] | speed of sound [m/s]
305.15 K | 995.038 ± 1 | 1513.7 ± 1.6
310.15 K | 993.328 ± 1 | 1523.6 ± 1.6
315.15 K | 991.439 ± 1 | 1532.1 ± 1.6

O [water] + N[C@@H](CO)C(=O)O
m2 = 0
Conditions | mass density [kg/m3] | speed of sound [m/s]
305.15 K | 995.038 ± 1 | 1513.7 ± 1.6
310.15 K | 993.328 ± 1 | 1523.6 ± 1.6
315.15 K | 991.439 ± 1 | 1532.1 ± 1.6

N[C@@H](CO)C(=O)O [L-serine] + O
Conditions | mass density, 305.15 K [kg/m3] | mass density, 310.15 K [kg/m3] | mass density, 315.15 K [kg/m3] | speed of sound, 305.15 K [m/s] | speed of sound, 310.15 K [m/s] | speed of sound, 315.15 K [m/s]
m1 = 0.1012 | 999.763 ± 1 | 997.637 ± 1 | 995.748 ± 1 | 1519.7 ± 1.6 | 1529.4 ± 1.6 | 1537.7 ± 1.6
m1 = 0.1997 | 1003.99 ± 1 | 1001.83 ± 1 | 999.945 ± 1 | 1525.5 ± 1.6 | 1535.1 ± 1.6 | 1543.3 ± 1.6
m1 = 0.3 | 1008.2 ± 1.1 | 1006.11 ± 1.1 | 1004.22 ± 1.1 | 1531.1 ± 1.6 | 1540.5 ± 1.6 | 1548.4 ± 1.6
m1 = 0.3986 | 1012.53 ± 1.1 | 1010.31 ± 1.1 | 1008.42 ± 1.1 | 1536.8 ± 1.7 | 1546.1 ± 1.7 | 1554 ± 1.7
m1 = 0.4987 | 1016.75 ± 1.1 | 1014.57 ± 1.1 | 1012.68 ± 1.1 | 1542.2 ± 1.7 | 1551.4 ± 1.7 | 1559.2 ± 1.7
m1 = 0.6008 | 1021.43 ± 1.2 | 1018.92 ± 1.2 | 1017.03 ± 1.1 | 1548 ± 1.8 | 1556.9 ± 1.8 | 1564.5 ± 1.7
m1 = 0.6973 | 1025.53 ± 1.2 | 1023.03 ± 1.2 | 1021.14 ± 1.2 | 1553.3 ± 1.8 | 1562.2 ± 1.8 | 1569.6 ± 1.8
m1 = 0.8 | 1029.74 ± 1.2 | 1027.41 ± 1.2 | 1025.52 ± 1.2 | 1558.8 ± 1.8 | 1567.6 ± 1.8 | 1575 ± 1.8
m1 = 0.9003 | 1033.96 ± 1.3 | 1031.68 ± 1.3 | 1029.79 ± 1.3 | 1564 ± 1.9 | 1572.7 ± 1.9 | 1579.9 ± 1.9
m1 = 0.9963 | 1037.97 ± 1.3 | 1035.77 ± 1.4 | 1033.88 ± 1.3 | 1569.2 ± 1.9 | 1577.7 ± 1.9 | 1584.9 ± 1.9
